Assay results as given in ChEMBL document CHEMBL6134892, “Discovery and Evaluation of DA-302168S as an Efficacious Oral Small-Molecule Glucagon-Like Peptide-1 Receptor Agonist” (J Med Chem, 2025).

Key:
[1] = Cmax in Sprague-Dawley rat at 10 mg/kg, po measured up to 24 hrs by LC-MS/MS analysis; type: ADME, organism-based; settings: in vivo
[2] = target: T1, Cytochrome P450 2B6 (Homo sapiens, UniProt P20813); assay: Inhibition of CYP2B6 in human liver microsomes incubated for 10 mins in presence of NADPH by LC-MS/MS analysis; type: ADME, Microsome
T1 sequence (P20813 whole entry): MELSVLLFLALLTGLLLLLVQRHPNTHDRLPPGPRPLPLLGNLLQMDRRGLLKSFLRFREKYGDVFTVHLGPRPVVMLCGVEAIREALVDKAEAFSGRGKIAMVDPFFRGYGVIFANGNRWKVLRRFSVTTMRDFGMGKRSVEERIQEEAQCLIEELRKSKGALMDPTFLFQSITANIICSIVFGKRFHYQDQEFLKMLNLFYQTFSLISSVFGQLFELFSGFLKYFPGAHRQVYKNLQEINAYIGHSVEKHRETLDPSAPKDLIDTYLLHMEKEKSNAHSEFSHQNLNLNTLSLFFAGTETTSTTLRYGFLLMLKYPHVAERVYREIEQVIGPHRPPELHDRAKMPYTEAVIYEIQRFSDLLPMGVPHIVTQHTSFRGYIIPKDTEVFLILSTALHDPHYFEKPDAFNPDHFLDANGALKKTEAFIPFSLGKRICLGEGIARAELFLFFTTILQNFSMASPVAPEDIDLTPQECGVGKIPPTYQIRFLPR

[3] = AUC last in Sprague-Dawley rat at 10 mg/kg, po measured up to 24 hrs by LC-MS/MS analysis; type: ADME, organism-based; settings: in vivo
[4] = target: Voltage-gated inwardly rectifying potassium channel KCNH2 (Homo sapiens, UniProt Q12809); assay: Inhibition of human ERG by whole-cell patch clamp technique; type: toxicity
[5] = Metabolic stability in human liver microsomes assessed as intrinsic clearance at 1 uM measured after 5 to 45 mins in presence of NADPH by LC-MS/MS analysis; type: ADME, Microsome; settings: time 5-45 min, read-out: CLH
[6] = target: hERG (KCNH2) (Homo sapiens, UniProt Q12809); assay: Inhibition of human ERG at 30 uM by whole-cell patch clamp technique relative to control; type: toxicity
[7] = Half life in Cynomolgus monkey at 0.5 mg/kg, iv measured up to 48 hrs by LC-MS/MS analysis; type: ADME, organism-based, Macaca fascicularis; settings: in vivo
[8] = Oral bioavailability in Sprague-Dawley rat at 10 mg/kg measured up to 24 hrs by LC-MS/MS analysis; type: ADME, organism-based; settings: in vivo
[9] = target: 5-HT1B receptor (Homo sapiens, UniProt P28222); assay: Inhibition of 5-HT1B (unknown origin) at 10 uM relative to control; type: toxicity
[10] = Metabolic stability in human liver microsomes assessed as hepatic clearance at 1 uM measured after 5 to 45 mins in presence of NADPH by LC-MS/MS analysis; type: ADME, Microsome; settings: time 5-45 min
[11] = Oral bioavailability in Cynomolgus monkey at 5 mg/kg measured up to 48 hrs by LC-MS/MS analysis; type: ADME, organism-based, Macaca fascicularis; settings: in vivo
[12] = target: LCK (tyrosine-protein kinase Lck) (Homo sapiens, UniProt P06239); assay: Inhibition of LCK (unknown origin) at 10 uM relative to control; type: toxicity
[13] = target: CB2 (cannabinoid receptor 2) (Homo sapiens, UniProt P34972); assay: Inhibition of CB2 (unknown origin) at 10 uM relative to control; type: toxicity
[14] = target: Cytochrome P450 2C19 (Homo sapiens, UniProt P33261); assay: Inhibition of CYP2C19 in human liver microsomes incubated for 45 mins in presence of NADPH by LC-MS/MS analysis; type: ADME, Microsome
[15] = Agonist activity at cynomolgus monkey GLP-1R expressed in HEK293 cells by cAMP accumulation assay; settings: Macaca fascicularis
[16] = Half life in Cynomolgus monkey at 5 mg/kg, po measured up to 48 hrs by LC-MS/MS analysis; type: ADME, organism-based, Macaca fascicularis; settings: in vivo
[17] = target: Cytochrome P450 2C9 (Homo sapiens, UniProt P11712); assay: Inhibition of CYP2C9 in human liver microsomes incubated for 10 mins in presence of NADPH by LC-MS/MS analysis; type: ADME, Microsome
[18] = Tmax in Sprague-Dawley rat at 10 mg/kg, po measured up to 24 hrs by LC-MS/MS analysis; type: ADME, organism-based; settings: in vivo
[19] = Cmax in Cynomolgus monkey at 5 mg/kg, po measured up to 48 hrs by LC-MS/MS analysis; type: ADME, organism-based, Macaca fascicularis; settings: in vivo
[20] = Tmax in Cynomolgus monkey at 5 mg/kg, po measured up to 48 hrs by LC-MS/MS analysis; type: ADME, organism-based, Macaca fascicularis; settings: in vivo
[21] = Metabolic stability in human liver microsomes assessed as half life at 1 uM measured after 5 to 45 mins in presence of NADPH by LC-MS/MS analysis; type: ADME, Microsome; settings: time 5-45 min
[22] = AUC last in Cynomolgus monkey at 5 mg/kg, po measured up to 48 hrs by LC-MS/MS analysis; type: ADME, organism-based, Macaca fascicularis; settings: in vivo
[23] = target: T2, Glucagon-like peptide 1 receptor (Homo sapiens, UniProt P43220); assay: Agonist activity at human GLP-1R expressed in HEK293 cells coexpressing CRE LUC incubated for 5 hrs by luciferase based microplate reader analysis; type: functional, cell-based
[24] = target: T3, Cytochrome P450 2C8 (Homo sapiens, UniProt P10632); assay: Inhibition of CYP2C8 in human liver microsomes incubated for 20 mins in presence of NADPH by LC-MS/MS analysis; type: ADME, Microsome
T3 sequence (P10632 whole entry): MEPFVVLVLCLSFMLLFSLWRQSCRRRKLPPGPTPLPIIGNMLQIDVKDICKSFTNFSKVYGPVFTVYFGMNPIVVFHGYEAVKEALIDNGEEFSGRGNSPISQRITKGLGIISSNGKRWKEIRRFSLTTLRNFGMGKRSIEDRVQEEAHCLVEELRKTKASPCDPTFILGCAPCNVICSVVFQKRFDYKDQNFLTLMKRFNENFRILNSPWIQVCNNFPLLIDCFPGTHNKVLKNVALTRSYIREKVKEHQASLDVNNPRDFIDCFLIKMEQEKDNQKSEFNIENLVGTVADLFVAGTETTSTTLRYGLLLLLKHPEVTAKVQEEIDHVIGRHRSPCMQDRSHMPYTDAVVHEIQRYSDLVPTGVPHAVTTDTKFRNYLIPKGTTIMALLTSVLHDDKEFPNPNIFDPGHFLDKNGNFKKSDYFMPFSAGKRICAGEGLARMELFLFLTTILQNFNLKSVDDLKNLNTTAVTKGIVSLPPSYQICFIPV

[25] = AUC last in male Sprague-Dawley rat at 1 mg/kg, iv measured up to 24 hrs by LC-MS/MS analysis; type: ADME, organism-based; settings: in vivo
[26] = target: T2, Glucagon-like peptide 1 receptor; assay: Agonist activity at human GLP-1R expressed in HEK293 cells assessed as beta-arrestin recruitment; type: functional, cell-based
[27] = target: Cytochrome P450 2D6 (Homo sapiens, UniProt P10635); assay: Inhibition of CYP2D6 in human liver microsomes incubated for 20 mins in presence of NADPH by LC-MS/MS analysis; type: ADME, Microsome
[28] = target: Cytochrome P450 3A4 (Homo sapiens, UniProt P08684); assay: Inhibition of CYP3A4 in human liver microsomes using testosterone as substrate incubated for 5 mins in presence of NADPH by LC-MS/MS analysis; type: ADME, Microsome
Chain of Cytochrome P450 3A4 (P08684 whole entry): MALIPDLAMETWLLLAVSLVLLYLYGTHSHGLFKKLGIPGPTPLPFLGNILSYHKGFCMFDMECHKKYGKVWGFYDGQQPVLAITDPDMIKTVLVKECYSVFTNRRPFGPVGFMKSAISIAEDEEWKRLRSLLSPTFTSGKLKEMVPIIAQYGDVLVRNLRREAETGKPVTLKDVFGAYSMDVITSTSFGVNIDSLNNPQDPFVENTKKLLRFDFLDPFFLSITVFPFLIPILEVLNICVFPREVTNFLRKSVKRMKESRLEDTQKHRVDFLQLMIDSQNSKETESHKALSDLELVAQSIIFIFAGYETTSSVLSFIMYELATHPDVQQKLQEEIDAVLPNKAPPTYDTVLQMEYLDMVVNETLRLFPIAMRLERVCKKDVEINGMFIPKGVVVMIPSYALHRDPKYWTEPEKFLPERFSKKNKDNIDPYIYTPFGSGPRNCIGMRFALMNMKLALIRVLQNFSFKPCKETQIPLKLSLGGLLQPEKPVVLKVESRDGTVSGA

T2 sequence (P43220 whole entry): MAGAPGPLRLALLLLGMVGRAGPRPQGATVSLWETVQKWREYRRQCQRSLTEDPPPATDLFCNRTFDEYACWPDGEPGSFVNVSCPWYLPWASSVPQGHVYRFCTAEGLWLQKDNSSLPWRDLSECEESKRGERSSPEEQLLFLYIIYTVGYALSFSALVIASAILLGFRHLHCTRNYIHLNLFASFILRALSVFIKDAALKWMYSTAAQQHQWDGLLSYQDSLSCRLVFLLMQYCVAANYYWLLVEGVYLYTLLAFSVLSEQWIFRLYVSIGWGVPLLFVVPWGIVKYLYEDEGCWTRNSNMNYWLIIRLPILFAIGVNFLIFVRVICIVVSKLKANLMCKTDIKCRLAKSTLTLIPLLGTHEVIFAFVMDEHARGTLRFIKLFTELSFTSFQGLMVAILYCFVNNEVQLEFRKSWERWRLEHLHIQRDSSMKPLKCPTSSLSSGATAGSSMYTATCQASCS
Chain of Cytochrome P450 2C19 (P33261 whole entry): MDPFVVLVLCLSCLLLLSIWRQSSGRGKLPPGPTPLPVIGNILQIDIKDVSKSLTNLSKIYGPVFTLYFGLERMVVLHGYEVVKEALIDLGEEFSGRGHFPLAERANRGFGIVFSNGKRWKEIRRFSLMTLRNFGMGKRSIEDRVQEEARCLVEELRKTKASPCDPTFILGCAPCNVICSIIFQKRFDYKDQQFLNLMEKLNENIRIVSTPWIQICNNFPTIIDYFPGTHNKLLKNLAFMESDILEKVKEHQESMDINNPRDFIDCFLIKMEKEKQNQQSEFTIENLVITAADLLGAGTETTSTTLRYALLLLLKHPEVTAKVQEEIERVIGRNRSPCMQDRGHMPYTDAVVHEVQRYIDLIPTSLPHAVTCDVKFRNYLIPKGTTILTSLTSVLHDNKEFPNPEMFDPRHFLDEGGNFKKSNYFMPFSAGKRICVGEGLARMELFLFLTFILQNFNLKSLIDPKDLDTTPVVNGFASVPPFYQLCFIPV
Chain of Cytochrome P450 2D6 (P10635 whole entry): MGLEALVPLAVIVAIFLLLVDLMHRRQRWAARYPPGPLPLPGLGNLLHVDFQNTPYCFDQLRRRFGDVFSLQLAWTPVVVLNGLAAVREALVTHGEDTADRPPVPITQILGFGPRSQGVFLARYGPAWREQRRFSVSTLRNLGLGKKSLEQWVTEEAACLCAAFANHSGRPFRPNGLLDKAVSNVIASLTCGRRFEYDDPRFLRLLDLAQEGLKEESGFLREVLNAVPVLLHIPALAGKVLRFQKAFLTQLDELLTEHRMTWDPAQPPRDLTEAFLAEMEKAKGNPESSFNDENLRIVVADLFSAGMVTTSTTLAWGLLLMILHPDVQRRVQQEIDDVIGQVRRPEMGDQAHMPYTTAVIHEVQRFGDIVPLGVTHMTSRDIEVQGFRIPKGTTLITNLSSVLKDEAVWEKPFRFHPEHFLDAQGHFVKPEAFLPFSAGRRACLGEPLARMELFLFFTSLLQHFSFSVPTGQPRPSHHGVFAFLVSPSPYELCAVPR
Chain of hERG (KCNH2) (Q12809 whole entry): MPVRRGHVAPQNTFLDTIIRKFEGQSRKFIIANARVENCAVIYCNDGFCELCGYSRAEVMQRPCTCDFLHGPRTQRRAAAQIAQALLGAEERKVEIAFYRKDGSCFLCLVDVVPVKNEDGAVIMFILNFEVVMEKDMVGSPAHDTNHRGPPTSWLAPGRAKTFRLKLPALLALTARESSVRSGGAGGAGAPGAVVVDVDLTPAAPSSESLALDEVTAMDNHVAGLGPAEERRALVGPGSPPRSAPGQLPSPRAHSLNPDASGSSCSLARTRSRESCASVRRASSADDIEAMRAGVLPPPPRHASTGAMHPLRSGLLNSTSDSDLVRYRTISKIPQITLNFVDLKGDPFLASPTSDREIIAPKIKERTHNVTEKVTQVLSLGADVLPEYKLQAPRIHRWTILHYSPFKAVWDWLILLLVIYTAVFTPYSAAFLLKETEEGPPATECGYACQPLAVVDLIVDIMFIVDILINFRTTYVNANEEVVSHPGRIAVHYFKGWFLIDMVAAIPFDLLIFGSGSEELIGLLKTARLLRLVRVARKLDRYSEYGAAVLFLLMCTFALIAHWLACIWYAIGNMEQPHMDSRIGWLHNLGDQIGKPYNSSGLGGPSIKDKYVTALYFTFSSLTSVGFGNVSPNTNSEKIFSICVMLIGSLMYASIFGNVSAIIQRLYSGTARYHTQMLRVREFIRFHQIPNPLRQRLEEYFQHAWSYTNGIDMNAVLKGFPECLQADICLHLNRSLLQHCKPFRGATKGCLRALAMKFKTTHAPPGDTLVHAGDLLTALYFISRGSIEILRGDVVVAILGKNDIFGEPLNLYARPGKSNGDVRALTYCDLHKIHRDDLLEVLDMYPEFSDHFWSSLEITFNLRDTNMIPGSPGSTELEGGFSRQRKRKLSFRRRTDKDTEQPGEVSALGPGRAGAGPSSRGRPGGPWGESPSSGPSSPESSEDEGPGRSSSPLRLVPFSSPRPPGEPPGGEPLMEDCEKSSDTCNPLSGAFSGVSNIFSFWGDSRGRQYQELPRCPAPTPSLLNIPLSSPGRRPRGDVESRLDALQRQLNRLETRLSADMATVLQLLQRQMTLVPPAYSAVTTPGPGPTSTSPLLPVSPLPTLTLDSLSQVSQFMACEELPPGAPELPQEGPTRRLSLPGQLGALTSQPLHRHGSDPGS
Chain of Voltage-gated inwardly rectifying potassium channel KCNH2 (Q12809 whole entry): as above
Chain of 5-HT1B receptor (P28222 whole entry): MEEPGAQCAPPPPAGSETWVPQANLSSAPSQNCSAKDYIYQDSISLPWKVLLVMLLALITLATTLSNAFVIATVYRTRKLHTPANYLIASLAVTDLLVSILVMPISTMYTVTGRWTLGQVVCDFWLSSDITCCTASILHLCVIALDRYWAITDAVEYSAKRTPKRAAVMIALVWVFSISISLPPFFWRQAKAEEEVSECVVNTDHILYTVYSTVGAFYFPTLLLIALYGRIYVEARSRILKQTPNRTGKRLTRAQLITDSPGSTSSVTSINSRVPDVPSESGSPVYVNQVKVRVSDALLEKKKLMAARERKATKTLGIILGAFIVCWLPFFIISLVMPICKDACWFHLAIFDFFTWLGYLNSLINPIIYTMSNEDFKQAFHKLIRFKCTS
Chain of CB2 (cannabinoid receptor 2) (P34972 whole entry): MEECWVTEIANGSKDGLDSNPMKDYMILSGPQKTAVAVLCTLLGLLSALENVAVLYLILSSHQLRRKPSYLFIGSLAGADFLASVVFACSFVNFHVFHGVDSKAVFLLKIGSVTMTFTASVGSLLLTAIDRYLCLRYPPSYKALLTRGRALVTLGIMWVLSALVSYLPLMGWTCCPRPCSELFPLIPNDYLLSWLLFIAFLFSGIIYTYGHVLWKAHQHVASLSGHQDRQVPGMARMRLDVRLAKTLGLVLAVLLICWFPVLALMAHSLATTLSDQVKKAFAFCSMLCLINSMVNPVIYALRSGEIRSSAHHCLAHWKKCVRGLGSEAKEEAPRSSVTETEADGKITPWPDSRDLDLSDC

Question: What does the source list for `O=C(O)c1ccc2nc(Cc3ccc(-c4ccc(F)c(OCc5ccc(Cl)c6ccoc56)n4)cc3F)n(C[C@@H]3CCO3)c2c1`?
Answer: Cmax [1]: 347 ng/mL; IC50 [2]: > 30 µM; AUC(0-t) at 24 h [3]: 2960 ng·h/mL; IC50 [4]: > 30 µM; CLint scaled at 1 µM [5]: 13.3 mL/min/kg; inhibition at 30 µM [6]: < 50%; half-life [7]: 12.7 h; bioavailability [8]: 20.1%; inhibition at 10 µM [9]: 62.4%; CLhep predicted at 1 µM [10]: 8.09 mL/min/kg; bioavailability [11]: 13.9%; inhibition at 10 µM [12]: 87.5%; inhibition at 10 µM [13]: 74.4%; IC50 [14]: > 30 µM; EC50 [15]: 0.012 nM; half-life [16]: 10.4 h; IC50 [17]: > 30 µM; Tmax [18]: 3.5 h; Cmax [19]: 327 ng/mL; Tmax [20]: 2.5 h; half-life at 1 µM [21]: 2.18 h; AUC(0-t) at 48 h [22]: 2440 ng·h/mL; EC50 [23]: 0.00132 µM; IC50 [24]: 28.3 µM; AUC(0-t) at 24 h [25]: 1480 ng·h/mL; EC50 [26]: 0.118 µM; IC50 [27]: > 30 µM; IC50 [28]: > 30 µM
